SMILES strings stand for the structures. Counter-ions that a name gives are not always drawn.

For experiment [1], the system named is indomethacin-induced gastric damage in rats. The experiment in a line: Gastric damage inhibitory activity against indomethacin-induced gastric damage in rats. The experiment is classed as in vivo, Sprague Dawley (SD) rats. Conditions: 2.0 mg/kg oral, 1 hour before indomethacin 80 mg/kg. On the procedure:
The inhibitory activity against the gastric damage of the compounds prepared in Examples 2 and 8 was measured using indomethacin model (Chiou., Et al., 2005, gastroenterology, 128, p 63-73). Male Sprague Dawley (SD) rats (body weight 180-220 g) was divided into 5 groups (n=10) and fasted for 24 hours with free access to water. Control group was orally administered with 5 mL/kg of 0.5% methyl cellulose (MC) aqueous solution, and the other groups were orally administered with test compounds suspended in 0.5% methyl cellulose (MC) aqueous solution at a dose of 2.0 mg/kg/5 ml. For comparison, the compound of Example 134 (Comparative Example 1) and the compound of Example 165 (Comparative Example 2) in International Patent Publication No. WO 2006/036024 were orally administered at a dose of 2.0 mg/kg/5 ml by suspending 0.5% methylcellulose (MC) aqueous solution, respectively. […] The incised stomach was placed on a fixture, fixed by a fixing pin while spreading out using a forcep and then the gastric damage area was measured. % Inhibitory activity of test compounds was calculated according to the following Equation 2, and the results are shown in Table 3. % Inhibitory activity of test compound=[1−(gastric damage area % of the group treated with test compounds)/(gastric damage area % of control group)]×100 [Equation 2]

Experiment [2] relates to 100% ethanol (EtOH)-induced gastric damage in rats. The experiment in a line: 100% ethanol (EtOH)-induced gastric damage in rats, gastric damage inhibition and mucus enhancement. Type of experiment: in vivo, Sprague Dawley (SD) rats. Particulars: oral 3.0, 10.0 and 30.0 mg/kg, 1 hour before 100% EtOH. On the procedure: The inhibitory activity and defensive factor-enhancing effects of the compound prepared in Example 8 were measured using 100% ethanol (EtOH)-induced gastric damage model (Paul V. Tan et al., 2002, Journal of Ethnopharmacology, 82, p 69-74). Male Sprague Dawley (SD) rats (body weight 180-200 g) was fasted for 24 hours with free access to water. Control group was orally administered with 5 mL/kg of 0.5% methyl cellulose (MC) aqueous solution, and the other groups were orally administered with test compounds suspended in 0.5% MC aqueous solution at a dose of 3.0, 10.0 and 30.0 mg/kg/5 mL. For comparison, the compound of Example 134 (Comparative Example 1), the compound of Example 165 (Comparative Example 2) and the compound of Example 166 (Comparative Example 3) in International Patent Publication No. WO2006/036024 were orally administered at the same dose by suspending 0.5% MC aqueous solution, respectively. 1 hour after oral administration, 1 mL of 100% EtOH was orally administered. 1 hour after EtOH administration, the test animals were sacrificed to remove the stomach. Ten in the total 20 animals scraped the mucus of stomach with a slide glass and the mucus contents were analyzed to calculate ED50. […] The incised stomach was placed on a fixture, fixed by a fixing pin while spreading out using a forcep and then the gastric damage area was measured to calculate ED50.

Regarding `CNCc1cn(S(=O)(=O)c2cccc(F)c2)c(-c2ccc(F)cc2F)c1OC.Cl` [Example 8, 1-(5-(2,4-difluorophenyl)-1-((3-fluorophenyl)sulfonyl)-4-methoxy-1H-pyrrol-3-yl)-N-methylmethanamine hydrochloride], the “% inhibitory activity (gastric damage area)” value in experiment [1] is 92.2%. In addition, the ED50 in experiment [2] (Rattus norvegicus, read-out: Mucus secretion ED50) worked out at 12.2 mg/kg. Further, the “Gastric index ED50” value in experiment [2] (gastric damage area) worked out at 13.4 mg/kg.

As to `CNCc1cn(S(=O)(=O)c2cccc(C(F)(F)F)c2)c(-c2ccccc2F)c1OC` [Example 2, hydrochloride], in experiment [1], the “% inhibitory activity (gastric damage area)” value worked out at 91.8%.

The values above are taken from US10100010B1, “4-methoxy pyrrole derivatives or salts thereof and pharmaceutical composition comprising the same” (Daewoong Pharmaceutical Co., Ltd., priority 2015, dated 2018).
